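Results reflect a 48-hour exposure of cells in 96-well plates to compound at five concentrations. The concentration for full growth arrest is given as TGI.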
How the values were obtained:
Assay in all cases: NCI tumour cell line growth inhibition, 48 h
ACHN renal = tested on: ACHN renal
SF-268 CNS = tested on: SF-268 CNS
MOLT-4 leukemia = tested on: MOLT-4 leukemia
RPMI-8226 leukemia = tested on: RPMI-8226 leukemia
SK-MEL-5 melanoma = tested on: SK-MEL-5 melanoma
HS 578T breast = tested on: HS 578T breast
786-0 renal = tested on: 786-0 renal
HOP-62 NSCLC = tested on: HOP-62 NSCLC
NCI-H460 lung = tested on: NCI-H460 lung
HCT-15 colon = tested on: HCT-15 colon
CAKI-1 renal = tested on: CAKI-1 renal
SW-620 colon = tested on: SW-620 colon
NCI-H522 lung = tested on: NCI-H522 lung
CCRF-CEM leukemia = tested on: CCRF-CEM leukemia
PC-3 prostate = tested on: PC-3 prostate
OVCAR-4 ovarian = tested on: OVCAR-4 ovarian
OVCAR-5 ovarian = tested on: OVCAR-5 ovarian
MDA-N = tested on: MDA-N
SN12C renal = tested on: SN12C renal
MDA-MB-435 = tested on: MDA-MB-435
NCI-H226 lung = tested on: NCI-H226 lung
DU-145 prostate = tested on: DU-145 prostate
A498 renal = tested on: A498 renal
EKVX NSCLC = tested on: EKVX NSCLC
A549 NSCLC = tested on: A549 NSCLC
U251 CNS = tested on: U251 CNS
K-562 leukemia = tested on: K-562 leukemia
MDA-MB-231 breast = tested on: MDA-MB-231 breast
HOP-92 NSCLC = tested on: HOP-92 NSCLC
NCI-H23 lung = tested on: NCI-H23 lung
IGROV1 ovarian = tested on: IGROV1 ovarian
SF-295 CNS = tested on: SF-295 CNS
LOX IMVI melanoma = tested on: LOX IMVI melanoma
OVCAR-3 ovarian = tested on: OVCAR-3 ovarian
HT29 colon = tested on: HT29 colon
SK-OV-3 ovarian = tested on: SK-OV-3 ovarian
TK-10 renal = tested on: TK-10 renal
SK-MEL-2 melanoma = tested on: SK-MEL-2 melanoma
SK-MEL-28 melanoma = tested on: SK-MEL-28 melanoma
HCT-116 colon = tested on: HCT-116 colon
RXF 393 renal = tested on: RXF 393 renal
UACC-257 melanoma = tested on: UACC-257 melanoma
UO-31 renal = tested on: UO-31 renal
BT-549 breast = tested on: BT-549 breast
MALME-3M melanoma = tested on: MALME-3M melanoma
SF-539 CNS = tested on: SF-539 CNS
KM12 colon = tested on: KM12 colon
SNB-75 CNS = tested on: SNB-75 CNS
UACC-62 melanoma = tested on: UACC-62 melanoma
OVCAR-8 ovarian = tested on: OVCAR-8 ovarian
MCF7 breast = tested on: MCF7 breast
HCC-2998 colon = tested on: HCC-2998 colon
NCI/ADR-RES ovarian = tested on: NCI/ADR-RES ovarian
SNB-19 CNS = tested on: SNB-19 CNS
T-47D breast = tested on: T-47D breast
COLO 205 colon = tested on: COLO 205 colon
M14 melanoma = tested on: M14 melanoma
HL-60(TB) leukemia = tested on: HL-60(TB) leukemia
SR leukemia = tested on: SR leukemia

**Q.** What does the source list for CCC1(C)C=Cc2c(cc(O)c3c(=O)c4ccccc4n(C)c23)O1 (stereo unspecified)?
**A.** TGI (ACHN renal): > 10 µM; TGI (SF-268 CNS): > 10 µM; TGI (MOLT-4 leukemia): > 10 µM; TGI (RPMI-8226 leukemia): > 10 µM; TGI (SK-MEL-5 melanoma): > 10 µM; TGI (HS 578T breast): > 10 µM; TGI (786-0 renal): > 10 µM; TGI (HOP-62 NSCLC): > 10 µM; TGI (NCI-H460 lung): > 10 µM; TGI (HCT-15 colon): > 10 µM; TGI (CAKI-1 renal): > 10 µM; TGI (SW-620 colon): > 10 µM; TGI (NCI-H522 lung): > 10 µM; TGI (CCRF-CEM leukemia): > 10 µM; TGI (PC-3 prostate): > 10 µM; TGI (OVCAR-4 ovarian): > 10 µM; TGI (OVCAR-5 ovarian): > 10 µM; TGI (MDA-N): > 10 µM; TGI (SN12C renal): > 10 µM; TGI (MDA-MB-435): > 10 µM; TGI (NCI-H226 lung): > 10 µM; TGI (DU-145 prostate): > 10 µM; TGI (A498 renal): > 10 µM; TGI (EKVX NSCLC): > 10 µM; TGI (A549 NSCLC): > 10 µM; TGI (U251 CNS): > 10 µM; TGI (K-562 leukemia): > 10 µM; TGI (MDA-MB-231 breast): > 10 µM; TGI (HOP-92 NSCLC): > 10 µM; TGI (NCI-H23 lung): > 10 µM; TGI (IGROV1 ovarian): > 10 µM; TGI (SF-295 CNS): > 10 µM; TGI (LOX IMVI melanoma): > 10 µM; TGI (OVCAR-3 ovarian): > 10 µM; TGI (HT29 colon): > 10 µM; TGI (SK-OV-3 ovarian): > 10 µM; TGI (TK-10 renal): > 10 µM; TGI (SK-MEL-2 melanoma): > 10 µM; TGI (SK-MEL-28 melanoma): > 10 µM; TGI (HCT-116 colon): > 10 µM; TGI (RXF 393 renal): > 10 µM; TGI (UACC-257 melanoma): > 10 µM; TGI (UO-31 renal): > 10 µM; TGI (BT-549 breast): > 10 µM; TGI (MALME-3M melanoma): > 10 µM; TGI (SF-539 CNS): > 10 µM; TGI (KM12 colon): > 10 µM; TGI (SNB-75 CNS): > 10 µM; TGI (UACC-62 melanoma): > 10 µM; TGI (OVCAR-8 ovarian): > 10 µM; TGI (MCF7 breast): > 10 µM; TGI (HCC-2998 colon): > 10 µM; TGI (NCI/ADR-RES ovarian): > 10 µM; TGI (SNB-19 CNS): > 10 µM; TGI (T-47D breast): > 10 µM; TGI (COLO 205 colon): > 10 µM; TGI (M14 melanoma): > 10 µM

**Q.** How did the TGI (ACHN renal) turn out when CCNC(=O)Nc1cccc(NC(=O)NCC)n1 was run?
**A.** The TGI was greater than 100 µM.

**Q.** And the TGI (SF-268 CNS)?
**A.** Its TGI is greater than 100 µM.

**Q.** And the TGI (MOLT-4 leukemia)?
**A.** The TGI was greater than 100 µM.

**Q.** And the TGI (SK-MEL-5 melanoma)?
**A.** The TGI was greater than 100 µM.

**Q.** What about the TGI (HS 578T breast) of the same compound?
**A.** Its TGI is greater than 100 µM.

**Q.** What about the TGI (786-0 renal) of the same compound?
**A.** Its TGI is greater than 100 µM.

**Q.** And the TGI (HOP-62 NSCLC)?
**A.** Its TGI is greater than 100 µM.

**Q.** What about the TGI (NCI-H460 lung) of the same compound?
**A.** Its TGI is greater than 100 µM.

**Q.** And the TGI (CAKI-1 renal)?
**A.** Its TGI is greater than 100 µM.

**Q.** And the TGI (HL-60(TB) leukemia)?
**A.** The TGI was greater than 100 µM.

**Q.** And the TGI (SW-620 colon)?
**A.** Its TGI is greater than 100 µM.

**Q.** And the TGI (NCI-H522 lung)?
**A.** Its TGI is greater than 100 µM.

**Q.** What about the TGI (CCRF-CEM leukemia) of the same compound?
**A.** Its TGI is greater than 100 µM.

**Q.** And the TGI (PC-3 prostate)?
**A.** The TGI was greater than 100 µM.

**Q.** And the TGI (OVCAR-4 ovarian)?
**A.** Its TGI is greater than 100 µM.

**Q.** And the TGI (OVCAR-5 ovarian)?
**A.** The TGI was greater than 100 µM.

**Q.** And the TGI (MDA-N)?
**A.** Its TGI is greater than 100 µM.

**Q.** And the TGI (SN12C renal)?
**A.** The TGI was greater than 100 µM.

**Q.** What about the TGI (MDA-MB-435) of the same compound?
**A.** Its TGI is greater than 100 µM.

**Q.** And the TGI (NCI-H226 lung)?
**A.** Its TGI is greater than 100 µM.

**Q.** And the TGI (DU-145 prostate)?
**A.** Its TGI is greater than 100 µM.

**Q.** What about the TGI (A498 renal) of the same compound?
**A.** Its TGI is greater than 100 µM.

**Q.** And the TGI (EKVX NSCLC)?
**A.** Its TGI is greater than 100 µM.

**Q.** What about the TGI (A549 NSCLC) of the same compound?
**A.** The TGI was greater than 100 µM.

**Q.** And the TGI (U251 CNS)?
**A.** The TGI was greater than 100 µM.

**Q.** And the TGI (K-562 leukemia)?
**A.** The TGI was greater than 100 µM.

**Q.** What about the TGI (SR leukemia) of the same compound?
**A.** The TGI was greater than 100 µM.

**Q.** What about the TGI (MDA-MB-231 breast) of the same compound?
**A.** Its TGI is greater than 100 µM.

**Q.** What about the TGI (HOP-92 NSCLC) of the same compound?
**A.** Its TGI is greater than 100 µM.

**Q.** What about the TGI (NCI-H23 lung) of the same compound?
**A.** The TGI was greater than 100 µM.

**Q.** What about the TGI (IGROV1 ovarian) of the same compound?
**A.** The TGI was greater than 100 µM.

**Q.** And the TGI (SF-295 CNS)?
**A.** Its TGI is greater than 100 µM.

**Q.** And the TGI (OVCAR-3 ovarian)?
**A.** The TGI was greater than 100 µM.

**Q.** What about the TGI (HT29 colon) of the same compound?
**A.** The TGI was greater than 100 µM.

**Q.** And the TGI (SK-OV-3 ovarian)?
**A.** Its TGI is greater than 100 µM.

**Q.** What about the TGI (TK-10 renal) of the same compound?
**A.** Its TGI is greater than 100 µM.

**Q.** And the TGI (SK-MEL-28 melanoma)?
**A.** The TGI was greater than 100 µM.

**Q.** And the TGI (HCT-116 colon)?
**A.** Its TGI is greater than 100 µM.

**Q.** What about the TGI (RXF 393 renal) of the same compound?
**A.** The TGI was greater than 100 µM.

**Q.** And the TGI (UACC-257 melanoma)?
**A.** The TGI was greater than 100 µM.

**Q.** What about the TGI (UO-31 renal) of the same compound?
**A.** Its TGI is greater than 100 µM.

**Q.** What about the TGI (BT-549 breast) of the same compound?
**A.** Its TGI is greater than 100 µM.

**Q.** And the TGI (MALME-3M melanoma)?
**A.** Its TGI is greater than 100 µM.

**Q.** And the TGI (SF-539 CNS)?
**A.** The TGI was greater than 100 µM.

**Q.** And the TGI (KM12 colon)?
**A.** The TGI was greater than 100 µM.

**Q.** What about the TGI (SNB-75 CNS) of the same compound?
**A.** The TGI was greater than 100 µM.

**Q.** What about the TGI (UACC-62 melanoma) of the same compound?
**A.** The TGI was greater than 100 µM.

**Q.** What about the TGI (OVCAR-8 ovarian) of the same compound?
**A.** The TGI was greater than 100 µM.

**Q.** What about the TGI (MCF7 breast) of the same compound?
**A.** Its TGI is greater than 100 µM.

**Q.** What about the TGI (HCC-2998 colon) of the same compound?
**A.** The TGI was greater than 100 µM.

**Q.** What about the TGI (SNB-19 CNS) of the same compound?
**A.** Its TGI is greater than 100 µM.

**Q.** What about the TGI (T-47D breast) of the same compound?
**A.** The TGI was greater than 100 µM.

**Q.** What about the TGI (COLO 205 colon) of the same compound?
**A.** Its TGI is greater than 100 µM.

**Q.** What about the TGI (M14 melanoma) of the same compound?
**A.** The TGI was greater than 100 µM.

From PubChem BioAssay (NCI)
